Assay results taken from patent publication US10017791B2, “Coryneform bacterium transformant and process for producing 4-hydroxybenzoic acid or salt thereof using the same” (GREEN PHENOL DEVELOPMENT CO., LTD., priority 2014, dated 2018).

Biological target: T1, chorismate-pyruvate lyase of Citrobacter youngae (Citrobacter youngae, UniProt A0ABM8MN84, A17E/A70K/G54A/S20A/T66M)
T1 sequence (A0ABM8MN84 1-165 A17E/S20A/G54A/T66M/A70K): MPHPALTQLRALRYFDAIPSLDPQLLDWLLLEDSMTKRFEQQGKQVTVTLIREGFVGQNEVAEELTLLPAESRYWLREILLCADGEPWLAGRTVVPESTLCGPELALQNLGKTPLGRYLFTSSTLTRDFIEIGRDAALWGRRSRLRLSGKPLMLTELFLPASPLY
Test: Product inhibition of chorismate-pyruvate lyase activity by 4-HBA (IC50)
Type: biochemical
Conditions: cell lysate supernatant of strain HBA13

SMILES: O=C(O)c1ccc(O)cc1 [Strain 4-HBA, 4-hydroxybenzoic acid]
- IC50: 67 µM
